Assay results as given in US20230174554A1, “SOLID FORM OF MACROCYCLIC COMPOUND, PREPARATION THEREFOR AND USE THEREOF” (Shenzhen TargetRx. Inc., priority 2020, published 2023).
≈ marks a conversion by molar mass, not a printed value. One block for each molecule: values may come before it.

Experiments:
Format in all cases: physicochemical
[1] = Competitive slurrying testing at room temperature (trans-crystallization); conditions: isobutanol, isopropanol and methyl tert-butyl ether, one day
Procedure: 10 mg of compound A crystal form I, crystal form IV, crystal form V and crystal form VI were added to 500 μL of three different solvent systems (isobutanol, isopropanol and methyl tert-butyl ether), respectively. The mixture was slurried at room temperature for one day. The solids were dried at 50° C. under vacuum overnight and characterized by XRPD.

[2] = Accelerated stability study of the free base and crystalline salts (40° C./75% RH and 60° C., HPLC and XRPD)
Procedure: The crystals were tested for HPLC and XRPD in different time points.

[3] = Solubility of the starting material (compound A crystal form I) in different solvents
[4] = Solubility and stability of the free base and crystalline salts in water, SGF, FaSSIF and FeSSIF; conditions: for Crystal form / crystallinity in the vehicle: XRPD
From the text: The solubility and stability of compound A crystal form, compound A maleate crystal form I and compound A acetate crystal form I in water, SGF (simulated gastric fluid), FaSSIF (simulated intestinal fluid in fasted state) and FeSSIF (simulated intestinal fluid in fed state) were studied.

[5] = Stability influencing factor tests of compound A crystal form I (high temperature, high humidity, illumination)
Procedure: Stability influencing factor tests were carried out on the samples of compound A crystal form I. The corresponding placement conditions and test results are listed in Table 5.

[6] = Dynamic moisture adsorption and desorption analysis (DVS), hygroscopicity, XRPD after test
Procedure: The samples were tested for hygroscopicity using DVS Intrinsic (SMS, UK). 30-50 mg of a sample was placed into a sample pan, and the change of sample mass with humidity at 25° C. was recorded. The instrument parameters were:
After the hygroscopicity test was completed, the crystal form of the sample was tested by XRPD.

[7] = Heating study to 190° C. with XRPD (trans-crystallization); conditions: heated to 190° C.
Procedure: A certain amount of compound A crystal form V and VI were weighed, heated to 190° C. and then characterized by XRPD.

[8] = FaSSIF (simulated intestinal fluid in fasted state), 37 °C, fassif, thermodynamic from solid, sample 10 mg/ml
[9] = FeSSIF (simulated intestinal fluid in fed state), 37 °C, fessif, thermodynamic from solid, sample 10 mg/ml
[10] = SGF (simulated gastric fluid), 37 °C, simulated gastric fluid, thermodynamic from solid, SGF, sample 10 mg/ml
[11] = water, thermodynamic from solid, H2O, room temperature, sample 5 mg/ml
[12] = High humidity (92.5% RH/25° C.), 0 days
[13] = High humidity (92.5% RH/25° C.), 5 days
[14] = High humidity (92.5% RH/25° C.), 10 days
[15] = High humidity (92.5% RH/25° C.), 37 days
[16] = High temperature (60° C.), 0 days
[17] = High temperature (60° C.), 5 days
[18] = High temperature (60° C.), 10 days
[19] = High temperature (60° C.), 37 days
[20] = Illumination (1.2*10^6 Lux · hr, 200 w · hr/m^2), 0 days
[21] = Illumination (1.2*10^6 Lux · hr, 200 w · hr/m^2), 5 days
[22] = Illumination (1.2*10^6 Lux · hr, 200 w · hr/m^2), 10 days

Trans-crystallization on competitive slurrying [1]: trans-crystallized to crystal form I
Compound: [2H]C([2H])([2H])n1nc2c(c1C#N)-c1cnc(N)c(c1)O[C@H](C)c1cc(F)ccc1C(=O)N(C)C2 [compound A crystal form IV, (10R)-7-amino-12-fluoro-2-(methyl-d3)-10,16-dimethyl-15-oxo-10,15,16,17-tetrahydro-2H-8,4-(metheno)pyrazolo[4,3-h][2,5,11]benzoxadiazacyclotetradecine-3-carbonitrile]

Purity % ([2]; 0 days; HPLC): 99.2% | Crystal form ([2]; 0 days; XRPD): Unchanged | Crystal form ([2]; 40° C./75% RH, 7 days, XRPD): not changed | Purity ([2]; 40° C./75% RH, 7 days; HPLC): not changed | Purity % ([2]; 40° C./75% RH, 7 days; HPLC): 99.4% | Crystal form ([2]; 40° C./75% RH, 7 days; XRPD): Unchanged | Crystal form ([2]; 60° C., 7 days, XRPD): not changed | Purity ([2]; 60° C., 7 days; HPLC): not changed | Purity % ([2]; 60° C., 7 days; HPLC): 99.3% | Crystal form ([2]; 60° C., 7 days; XRPD): Unchanged | Solubility ([3]; Acetone): ~246000 µg/mL (≈ 601 mM) | Solubility ([3]; Acetone, listed as starting material): greater than 100 mg/mL | Solubility ([3]; Acetonitrile): ~183000 µg/mL (≈ 447 mM) | Solubility ([3]; Butanone): ~173000 µg/mL (≈ 423 mM) | Solubility ([3]; Dichloromethane): ~240000 µg/mL (≈ 586 mM) | Solubility ([3]; Dichloromethane, listed as starting material): greater than 100 mg/mL | Solubility ([3]; Ethanol): ~21000 µg/mL (≈ 51.3 mM) | Solubility ([3]; Ethyl acetate): ~100000 µg/mL (≈ 244 mM) | Solubility ([3]; Isobutanol): ~1700 µg/mL (≈ 4.15 mM) | Solubility ([3]; Isopropanol): ~2500 µg/mL (≈ 6.11 mM) | Solubility ([3]; Isopropanol, listed as starting material): 1000 to 2000 µg/mL | Solubility ([3]; Isopropyl acetate): ~22000 µg/mL (≈ 53.7 mM) | Solubility ([3]; Methanol): ~190000 µg/mL (≈ 464 mM) | Solubility ([3]; Methyl tert-butyl ether): ~2500 µg/mL (≈ 6.11 mM) | Solubility ([3]; Methyl tert-butyl ether, listed as starting material): 1000 to 2000 µg/mL | Solubility ([3]; Tetrahydrofuran): ~215000 µg/mL (≈ 525 mM) | Solubility ([3]; Tetrahydrofuran, listed as starting material): greater than 100 mg/mL | Solubility ([3]; acetonitrile, organic solvent or mixture, thermodynamic from solid, Acetonitrile, read-out: Solubility): > 100000 µg/mL | Solubility ([3]; butanone, organic solvent or mixture, thermodynamic from solid, Butanone, read-out: Solubility): > 100000 µg/mL | Solubility ([3]; ethanol, organic solvent or mixture, thermodynamic from solid, Ethanol, read-out: Solubility): ~20000 µg/mL (≈ 48.8 mM) | Solubility ([3]; ethyl acetate, organic solvent or mixture, thermodynamic from solid, Ethyl acetate, read-out: Solubility): > 100000 µg/mL | Solubility ([3]; isobutanol, organic solvent or mixture, thermodynamic from solid, Isobutanol, read-out: Solubility): 1000 to 2000 µg/mL (≈ 2.44 to 4.88 mM) | Solubility ([3]; isopropyl acetate, organic solvent or mixture, thermodynamic from solid, Isopropyl acetate, read-out: Solubility): ~20000 µg/mL (≈ 48.8 mM) | Solubility ([3]; methanol, organic solvent or mixture, thermodynamic from solid, Methanol, read-out: Solubility): > 100000 µg/mL | Solubility ([3]; water): ~1000 µg/mL (≈ 2.44 mM) | Solubility ([3]; water, thermodynamic from solid, Water, read-out: Solubility): 1000 to 2000 µg/mL (≈ 2.44 to 4.88 mM) | solubility at 0.5 h [4, 8]: 170 µg/mL | solubility at 24 h [4, 8]: 110 µg/mL | Solubility ([4]; FaSSIF (simulated intestinal fluid in fasted state), fassif, thermodynamic from solid, FaSSIF (simulated intestinal fluid in fasted state), read-out: Solubility): < 3000 µg/mL | Crystal form / crystallinity in the vehicle ([4]; FaSSIF): nearly amorphous | solubility at 0.5 h [4, 9]: 550 µg/mL | solubility at 24 h [4, 9]: 380 µg/mL | Solubility ([4]; FeSSIF (simulated intestinal fluid in fed state), fessif, thermodynamic from solid, FeSSIF (simulated intestinal fluid in fed state), read-out: Solubility): < 3000 µg/mL | Crystal form / crystallinity in the vehicle ([4]; FeSSIF): nearly amorphous | solubility at 0.5 h [4, 10]: 10900 µg/mL | solubility at 24 h [4, 10]: 10200 µg/mL | Solubility ([4]; SGF (simulated gastric fluid), simulated gastric fluid, thermodynamic from solid, SGF (simulated gastric fluid), read-out: Solubility): > 5000 µg/mL | Solubility ([4]; water): < 3000 µg/mL | Crystal form / crystallinity in the vehicle ([4]; water): not changed | solubility at 0.5 h [4, 11]: 110 µg/mL | solubility at 24 h [4, 11]: 95 µg/mL | Solubility ([4]; water, listed as free base): less than 0.2 mg/mL | Content [5, 12]: 99.9% | Shape [5, 12]: White solid | Total impurity content [5, 12]: <0.05% | Content [5, 13]: 99.5% | Shape [5, 13]: White solid | Total impurity content [5, 13]: <0.05% | Content [5, 14]: 99.7% | Shape [5, 14]: White solid | Total impurity content [5, 14]: <0.05% | Content [5, 15]: 99.4% | Shape [5, 15]: White solid | Total impurity content [5, 15]: <0.05% | Content [5, 16]: 99.9% | Shape [5, 16]: White solid | Total impurity content [5, 16]: <0.05% | Content [5, 17]: 98.8% | Shape [5, 17]: White solid | Total impurity content [5, 17]: <0.05% | Content [5, 18]: 100.4% | Shape [5, 18]: White solid | Total impurity content [5, 18]: <0.05% | Content [5, 19]: 99.8% | Total impurity content [5, 19]: <0.05% | Content [5, 20]: 99.9% | Shape [5, 20]: White solid | Total impurity content [5, 20]: <0.05% | Content [5, 21]: 98.7% | Total impurity content [5, 21]: <0.05% | Content [5, 22]: 99.1% | Total impurity content [5, 22]: <0.05% | Crystal form before and after the DVS test ([6]; XRPD): not changed | DVS weight gain ([6]; humidity increased from 0% RH to 80% RH, 25° C.): 0.17%
Compound: [2H]C([2H])([2H])n1nc2c(c1C#N)-c1cnc(N)c(c1)O[C@H](C)c1cc(F)ccc1C(=O)N(C)C2 [compound A crystal form I, (10R)-7-amino-12-fluoro-2-(methyl-d3)-10,16-dimethyl-15-oxo-10,15,16,17-tetrahydro-2H-8,4-(metheno)pyrazolo[4,3-h][2,5,11]benzoxadiazacyclotetradecine-3-carbonitrile]

Crystal form after heating [7]: transformed into crystal form I
Compound: [2H]C([2H])([2H])n1nc2c(c1C#N)-c1cnc(N)c(c1)O[C@H](C)c1cc(F)ccc1C(=O)N(C)C2 [compound A crystal form V, (10R)-7-amino-12-fluoro-2-(methyl-d3)-10,16-dimethyl-15-oxo-10,15,16,17-tetrahydro-2H-8,4-(metheno)pyrazolo[4,3-h][2,5,11]benzoxadiazacyclotetradecine-3-carbonitrile]
